The test system of series [1] is A549. Kind of series: in vitro screen against human tumor cell line A549 (lung), GI50. The class given is cell-based.
Series [2] deals with DU145. Kind of series: in vitro screen against human tumor cell line DU-145 (prostate), GI50. The format is cell-based.
Series [3] concerns KB. Kind of series: in vitro screen against human tumor cell line KB (nasopharyngeal), GI50. The class given is cell-based. As to conditions: for GI50: read-out: GI50 KB.
In series [4] the test system is HCT-8. Kind of series: in vitro screen against human tumor cell line HCT-8 (colon), GI50. The class given is cell-based.
In series [5] the test system is panel of cancer cell lines including A549 (lung), DU-145 (prostate), KB (nasopharyngeal), and HCT-8 (colon). Kind of series: cells. As to conditions: Homo sapiens.
Series [6] deals with KBvin. Kind of series: in vitro screen against KBvin cell line, GI50. The class given is cell-based. As to conditions: Homo sapiens, KBVIN; Example 3, Table 1.
The subject of series [7] is SKBR. Kind of series: in vitro screen against cancer cell line SKBR (breast), GI50. To be noted: Example 3, Table 1. The class given is cell-based.
Series [8] relates to panel of cancer cell lines including A549 (lung), DU-145 (prostate), KB (nasopharyngeal), and HCT-8 (colon).
Series [9] deals with rats. To be noted: rat, in vivo; cited from earlier work.
Setting [10] is: Homo sapiens, A549, Example 3, Table 1, read-out: GI50 A549.
[11] abbreviates: Homo sapiens, DU-145, Example 3, Table 1, read-out: GI50 DU145.
[12] abbreviates: Homo sapiens, KB, Example 3, Table 1.

Like-named read-outs stand apart in the source and are kept apart here.

Here are results for nine molecules from patent US9216977B2 (The University of North Carolina at Chapel Hill, priority 2009, dated 2015).

One may read the GI50 as the concentration giving 50% growth inhibition. In the case of `COc1ccc2c3c(c4cc(OC)c(OC)cc4c2c1)C[C@H]1CCOCN1C3` [Compound 13, (S)-12-oxa-cryptopleurine], the GI50 was 1.79 µM in [1] (Homo sapiens, A549, Example 2, Table 5, read-out: GI50 A549); 1.82 µM in [2] (Homo sapiens, DU-145, Example 2, Table 5, read-out: GI50 DU145); 1.66 µM in series [3] (Homo sapiens, KB, Example 2, Table 5); 1.45 µM in [4] (Homo sapiens, HCT-8, Example 2, Table 5, read-out: GI50 HCT-8); 1 to 2 µM in series [5] (read-out: average GI50).

On to `COc1ccc2c3c(c4cc(OC)c(OC)cc4c2c1)C[C@H]1C[C@H](O)CCN1C3` [Compound 13b, (13R,14aS)-13-hydroxyl-cryptopleurine], for which the GI50 came to 0.022 µM in series [1] (setting [10]); 0.011 µM in series [2] (setting [11]); 0.023 µM in [3] (setting [12]); 0.025 µM in series [6]; 0.072 µM in [7]. Besides, in [8], the “range of cytotoxicity / anticancer activity in words” value is on record as “low nM range”.

In the case of `COc1ccc2c3c(c4cc(OC)c(OC)cc4c2c1)C[C@H]1CCC(=O)CN1C3` [Compound 18, (R)-12-oxo-cryptopleurine], the GI50 was found to be 0.91 µM in [1] (setting [10]); 1.7 µM in series [2] (setting [11]); 0.734 µM in series [3] (setting [12]); 1.48 µM in [6]; 3.34 µM in [7].

Take `COc1ccc2c3c(c4cc(OC)c(OC)cc4c2c1)C[C@H]1C[C@@H](O)CCN1C3` [Compound 13a, (13S,14aS)-13-hydroxyl-eryptopleurine]: the GI50 in [1] (setting [10]) was found to be 0.072 µM; in series [2] (setting [11]), 0.059 µM; in series [3] (setting [12]), 0.043 µM; in series [6], 0.078 µM; in series [7], 0.295 µM. For the same molecule, the “range of cytotoxicity / anticancer activity in words” value in [8] was “low nM range”.

Regarding `COc1ccc2c3c(c4cc(OC)c(OC)cc4c2c1)C[C@H]1CC[C@@H](O)CN1C3` [Compound 19a, (12R,14aR)-12-hydroxyl-cryptopleurine], the GI50 in series [1] (setting [10]) is 0.082 µM; in [2] (setting [11]) it was 0.066 µM; in series [3] (setting [12]), 0.033 µM; in [6] it was 0.045 µM; in series [7], 0.348 µM. Moreover, in series [8], the “range of cytotoxicity / anticancer activity in words” value is “lower nM range”.

The melting point is the temperature, or range, at which the solid turns liquid. The molecule `COc1ccc2c3c(c4cc(OC)c(OC)cc4c2c1)C[C@H]1CN(C)CN1C3` [Compound 3h, (S)-12-aza-12N-methyl-antofine] had a melting point of 182 to 184 °C. In series [1] (Example 2, Table 2, 12-aza-antofines, read-out: GI50 A549), the GI50 worked out at 0.66 µM. Besides, the GI50 in series [2] (Example 2, Table 2, 12-aza-antofines, read-out: GI50 DU145) is 2.03 µM. Also, in series [3] (Example 2, Table 2, 12-aza-antofines), the GI50 is recorded as 1.72 µM. In series [4] (Example 2, Table 2, 12-aza-antofines, read-out: GI50 HCT-8), the GI50 worked out at 1 µM. Further, the GI50 in [5] (read-out: range of activities (GI50) over the cell line panel) was in the range of 0.66 to 2.03 µM.

`COc1cc2c3c(c4cc(OC)c(OC)cc4c2cc1OC)CN1CCC[C@@H]1C3` [tylophorine]: in series [9], the generally non-toxic dose entry is “up to 500 mg/kg”.

With `COc1ccc2c3c(c4cc(OC)c(OC)cc4c2c1)C[C@H]1CC[C@H](O)CN1C3` [Compound 19b, (12S,14aR)-12-hydroxyl-cryptopleurine], the GI50 in series [1] (setting [10]) was 2.51 µM; in [2] (setting [11]), 2.25 µM; in series [3] (setting [12]), 2.25 µM; in series [6], 3.07 µM; in [7], 6.44 µM. Moreover, the “range of cytotoxicity / anticancer activity in words” value in series [8] is on record as “low μM range”.

Take `COc1ccc2c3c(c4cc(OC)c(OC)cc4c2c1)C[C@H]1CCCCN1C3` [R-cryptopleurine, reference compound]: the GI50 was found to be 0.00138 µM in series [1] (read-out: A549 GI50); 0.00138 µM in [1] (read-out: GI50 A549); 0.00159 µM in series [2] (read-out: DU145 GI50); 0.00159 µM in series [2] (read-out: GI50 DU145); 0.00151 µM in [3]; 0.00109 µM in series [4] (read-out: GI50 HCT-8). In [4] (read-out: HCT-8 GI50), the GI50 turned out to be 0.00109 µM. The “KB GI50” value in series [3] is 0.00151 µM. Moreover, the “toxicity in animal tests” value in series [9] is reported as “quite toxic”.
